From patent publication US20220054494A1, “METHODS FOR TREATING BLADDER AND URETHRA DYSFUNCTION AND DISEASE” (University of Pittsburgh - Of the Commonwealth System of …, priority 2019, published 2022)
“Also recorded” adds a separate entry of the source.

Tests used:
Type in all cases: in vivo, rat
catalase = experiment: Catalase activity in detrusor smooth muscle; conditions: aged rats; oral 8-AG 5 mg/kg/day, 6 weeks
purines in urine = experiment: Purines in urine by mass spectrometry; conditions: aged rats, oral 8-AG 5 mg/kg/day, 6 weeks
Protocol: Protocol 2: Purines in urine were measured by mass spectrometry using selected reaction monitoring. Urine samples were diluted 1 to 30 with water, and heavy isotope internal standards were added to each sample. Purines were separated by reversed-phase ultra-performance liquid chromatography (Waters UPLC BEH C18 column, 1.7 μm beads; 2.1×150 mm; Milford, Mass.) and quantified by selected reaction monitoring using a triple quadrupole mass spectrometer (TSQ Quantum-Ultra; THERMOFISHER SCIENTIFIC®, San Jose, Calif.) with a heated electrospray ionization source. The mobile phase was a linear gradient flow rate (300 μL/min) of 1% acetic acid in water (pH, 3; mobile phase A) and 100% methanol (mobile phase B) and was delivered with a Waters Acquity ultra-performance liquid chromatographic system. The gradient (A/B) settings were as follows: from 0 to 2 minutes, 99.6%/0.4%; from 2 to 3 minutes, to 98.0%/2.0%; from 3 to 4 minutes, to 85.0%/15.0%; and from 4 to 6.5 minutes, to 99.6%/0.4%. The instrument parameters were: sample tray temperature, 10° C.; column temperature, 50° C.; ion spray voltage, 4.0 kilovolts; ion transfer tube temperature, 350° C.; source vaporization temperature, 320° C.; Q2 CID gas, argon at 1.5 mTorr; sheath gas, nitrogen at 60 psi; auxillary gas, nitrogen at 35 psi; Q1/Q3 width, 0.7/0.7 units full-width half-maximum; scan width, 0.6 units; scan time, 0.01 seconds. […]
Purine Metabolome Measurement: Purines in urine were measured by mass spectrometry using selected reaction monitoring.(7,13) Urine samples were diluted 1 to 30 with water, and heavy isotope internal standards were added to each sample. Purines were separated by reversed-phase ultra-performance liquid chromatography (Waters UPLC BEH C18 column, 1.7 μm beads; 2.1×150 mm; Milford, Mass.) and quantified by selected reaction monitoring using a triple quadrupole mass spectrometer (TSQ Quantum-Ultra; THERMOFISHER SCIENTIFIC®, San Jose, Calif.) with a heated electrospray ionization source. […]

bladder vasculature = experiment: Ribbon-scanning confocal microscopy of bladder vasculature perfused with fluorescent beads; conditions: aged rats
Source text: Bladders that had been perfused transcardially with PBS and containing 20 nm yellow-green fluorescent beads (THERMO FISHER™, F8787) to highlight the vasculature were fixed then cleared rapidly by removing lipids and dissolving light-absorbing chromophores within the tissue. Clearing the tissue increased the maximum depth of confocal imaging to many millimeters. At this stage, tissue was directly imaged for the presence of genetically expressed reporter proteins or underwent staining using immunohistochemistry (IHC) or molecular dyes. Using this method, images were acquired through bladders (and other tissues) that are 5000 micrometers thick. Volumetric data are acquired using the Caliber ID RS-G4 ribbon scanning confocal microscope, which acquired large-area images 20-40 times faster than other commercially available systems with a high nA (1.0) long working distance (8 mm) low magnification (20×) by NIKON™ Inc (Tokyo, Japan). Quantitative changes in vascular structures were compared with the volume and surface area of each bladder and of the various tissue subtypes using these methods (UT; suburothelium; mesenchyme). These methods afforded the advantage of interrogating whole tissues in a three-dimensional environment and in combination with IHC without the need to section.
Vascular Changes: Bladders that had been perfused transcardially with PBS buffer containing 20 nm yellow-green fluorescent beads (THERMO FISHER®, F8787) to highlight the vasculature were fixed then cleared by removing lipids and dissolving light-absorbing chromophores within the tissue. Volumetric data were acquired using a Caliber ID RS-G4 ribbon scanning confocal microscope (NIKON® Inc, Tokyo, Japan), which can acquire large-area images (uses a high nA (1.0) long working distance (8 mm) with low magnification (20×)). This affords the advantage of interrogating whole tissues in a three-dimensional environment without the need to section. Real-time blood perfusion (1 mm3 tissue) was accomplished using a BLF22D laser Doppler flowmeter (Transonic Systems, Inc) with a surface probe (TypeS-APLPHS) applied to the serosal surface of the bladder (apex and neck) wall using Doppler light shift from moving RBCs to analyze flow by the Bonner algorithm. This method gives robust, non-invasive microvascular flow signals in the bladder wall of anesthetized rats.

[1] = chronic 8-AG treatment (Examples 1-2)

## Nc1nc2[nH]c(N)nc2c(=O)[nH]1 [8-AG, 8-Aminoguanine]
catalase
  catalase activity in detrusor smooth muscle: levels similar to the younger state; also recorded: restored these biomarkers to that of a younger state
Purines in urine
  urinary hypoxanthine levels: significantly reduced; also recorded: levels comparable to younger rats; also recorded: normalizes; also recorded: restored to younger levels
Purines in urine; compared with young rats
  urinary guanosine levels: similar; also recorded: recovered
Purines in urine; undetectable in untreated aged rats
  urinary levels of 8-AG: restored to younger levels
Bladder vasculature; [1]
  ischemic appearance of bladder tissue: no longer appeared ischemic
  tortuosity of bladder vessels: restored to a younger state; also recorded: reduced the number of tortuous vessels
Bladder vasculature; oral 8-AG 5 mg/kg/day, 6 weeks
  ischemic appearance of bladder tissue: no longer appeared ischemic
  vascular tortuosity / tortuous vessels in bladder: reduced the number of tortuous vessels; also recorded: restored to a younger state
